Results: ChEMBL document CHEMBL1129679 (J Med Chem, 1996)

What was measured:
Dihydrofolate reductase [1] = target: T1, Dihydrofolate reductase (Homo sapiens, UniProt P00374); experiment: Inhibitory activity against Dihydrofolate reductase (DHFR) isolated from CCRF-CEM human leukemia cells in experiment 1; format: cell-free
T1 sequence (P00374 whole entry): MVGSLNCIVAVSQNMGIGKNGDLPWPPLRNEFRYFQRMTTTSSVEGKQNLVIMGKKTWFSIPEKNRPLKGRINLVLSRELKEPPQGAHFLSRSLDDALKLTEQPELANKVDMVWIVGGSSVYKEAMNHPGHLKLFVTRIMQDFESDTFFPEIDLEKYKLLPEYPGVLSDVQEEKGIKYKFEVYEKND

Dihydrofolate reductase [2] = target: T1, Dihydrofolate reductase; experiment: Inhibitory activity against Dihydrofolate reductase (DHFR) isolated from CCRF-CEM human leukemia cells in experiment 2; format: cell-free

SMILES | IC50 (Dihydrofolate reductase [1]) | IC50 (Dihydrofolate reductase [2])
CN(Cc1cnc2nc(N)nc(N)c2n1)c1ccc(C(=O)N[C@H](C[C@@H](F)C(=O)O)C(=O)O)cc1 | 0.84 nM | 
CN(Cc1cnc2nc(N)nc(N)c2n1)c1ccc(C(=O)NC(C(=O)O)C(F)(F)CC(=O)O)cc1 (racemic) |  | 1.34 nM
CN(Cc1cnc2nc(N)nc(N)c2n1)c1ccc(C(=O)NC(CC(F)C(=O)O)C(=O)O)cc1 (racemic) | 1.35 nM | 
